Measurements reported in patent US8748484B2, “Organometallic anti-cancer complexes” (Research Foundation of The City University of New York, priority 2011, dated 2014).

Key:
Test in all cases: Antiproliferative activity, viable cell count (trypan blue) after 96 hours
Assay type in all cases: cell-based, human
DU145 = conditions: for IC50: DU145, Prostate, 96 hours, 50% growth inhibition vs DMSO
Description: (§1) The antiproliferative activity of compounds 1-4 was determined in the seven types of human cancer cell lines K562 (Chronic Myelogenous Leukemia, CML), HT-29 (colon), and HL-60 (Acute Myloid Leukemia, AML), DU-145 (prostate), MCF-7 (breast), and GRANTA-519 (Mantle Cell Leukemia, MCL), and NSCL (non small cell lung carcinoma) and compared with cisplatin.
(§2) Human cancer cells were plated in twelve-well dishes at a cell density of 2.5×10^4 cells/ml/well. The cells were treated, in duplicate, 24 hours later with increasing concentrations of each compound or cisplatin from Sigma (Table 3). The total number of viable cells was determined after 96 hours later by cell counting by hemacytometer and trypan blue staining. The percentage of viable cells remaining was calculated as follows: number of viable cells (compound treated)/number of viable cells (DMSO treated)*100. Compound 1 dose response assay plot (FIG. 3) is the average percent viable cells of the treated compared to the vehicle (DMSO) treated cells. DU-145, MCF-7, HT-29, H460 cells were grown in DMEM and K562, HL-60, Granata-519 cells were grown in RPMI medium both supplemented with 10% FBS (cell Generation) and 1 unit penicillin. Cells were routinely grown and treated at 37° C. under 90% humidity. The IC50 (50% growth inhibition as compared to DMSO treated control) values in micromoles were determined by extrapolation from the dose response curves. Dose response curves were generated by plotting the percentage of cells at each concentration versus concentration tested. Compound 1 was chosen to produce more detailed growth curves based on overall highest activity profile. Similarly, cells were treated at increasing concentrations of cisplatin and detailed growth curves were generated (FIG. 4). Thus the activity of compound 1 was compared to cisplatin.

K562 = conditions: for IC50: K562, CML, 96 hours, 50% growth inhibition vs DMSO, Compound 4 values above 25 μM are estimates from the plot 1-25 μM
Description: as §1, §2

MCF-7 = conditions: for IC50: MCF-7, Breast, 96 hours, 50% growth inhibition vs DMSO, Compound 4 values above 25 μM are estimates from the plot 1-25 μM
Description: as §1, §2

H460 = conditions: for IC50: H460, NSCLC, 96 hours, 50% growth inhibition vs DMSO, Compound 4 values above 25 μM are estimates from the plot 1-25 μM
Description: as §1, §2

HT-29 = conditions: for IC50: HT-29, Colon, 96 hours, 50% growth inhibition vs DMSO, Compound 4 values above 25 μM are estimates from the plot 1-25 μM
Description: as §1, §2

HL-60 = conditions: for IC50: HL-60, AML, 96 hours, 50% growth inhibition vs DMSO
Description: as §1, §2

GRANTA-519 = conditions: for IC50: GRANTA-519, MCL, 96 hours, 50% growth inhibition vs DMSO
Description: as §1, §2

Compound	IC50 (DU145) [nM]	IC50 (K562) [nM]	IC50 (MCF-7) [nM]	IC50 (H460) [nM]	IC50 (HT-29) [nM]	IC50 (HL-60) [nM]	anticancer activity relative to cisplatin (DU145; DU-145, times more potent than cisplatin)	anticancer activity relative to cisplatin (K562; K562, times higher than cisplatin)	anticancer activity relative to cisplatin (MCF-7; MCF-7, times more potent than cisplatin)	anticancer activity relative to cisplatin (H460; NSCL (non small cell lung carcinoma))	anticancer activity relative to cisplatin (HT-29; HT-29, times higher than cisplatin)	anticancer activity relative to cisplatin (HL-60; HL-60, times higher than cisplatin)	IC50 (GRANTA-519) [nM]	anticancer activity relative to cisplatin (GRANTA-519; GRANTA-519, times more potent than cisplatin)
[Ru3(CO)6(C12H10O6)(dppe)] [Cmpd 4]	10000	–	–	–	–	–	–	–	–	–	–	–	–	–
[Ru3(CO)6(C12H10O6)(dppm)] [Cmpd 3]	25000	30000	75000	70000	> 100000	25000	–	–	–	–	–	–	–	–
CC1=C2[O][Ru-]3(=[C]=O)(=[C]=O)([O+]=C2C=CO1)[Ru](=[C]=O)(=[C]=O)(=[C]=O)(=[C]=O)[Ru-]31(=[C]=O)(=[C]=O)[O]C2=C(C)OC=CC2=[O+]1 [Cmpd 1, [Ru3(CO)8(C12H10O6)]]	500	300	400	750	500	100	2-3 times	5-7 times	2-3 times	the same as cisplatin	5-7 times	5-7 times	75	2-3 times
N.N.[Cl][Pt][Cl] [Cisplatin, reference compound]	1000	1500	1500	750	3000	750	–	–	–	–	–	–	250	–
CC1=C2[O][Ru-]3(=[C]=O)(=[C]=O)([O+]=C2C=CO1)[Ru](=[C]=O)(=[C]=O)(=[C]=O)([P](c1ccccc1)(c1ccccc1)c1ccccc1)[Ru-]31(=[C]=O)(=[C]=O)[O]C2=C(C)OC=CC2=[O+]1 [Cmpd 2, [Ru3(CO)7(C12H10O6)(PPh3)]]	2500	2500	2500	5000	5000	750	–	–	–	–	–	–	–	–
